Results taken from PubChem BioAssay (NCI).
Several values for one entry are separate records, joined by “and”; a condition that tells them apart may be missing. Equal values may be shown once.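 Grown in 96-well plates, cells were treated for 48 hours with each compound at five concentrations. Insufficient inhibition: endpoint recorded as highest concentration tested. Definition used: TGI = concentration required for complete inhibition of growth.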

Assays:
Experiment in all cases: NCI tumour cell line growth inhibition, 48 h
[1] = test system: ACHN renal
[2] = test system: BT-549 breast
[3] = test system: CAKI-1 renal
[4] = test system: EKVX NSCLC
[5] = test system: MDA-MB-231 breast
[6] = test system: MOLT-4 leukemia
[7] = test system: OVCAR-3 ovarian
[8] = test system: RPMI-8226 leukemia
[9] = test system: RXF 393 renal
[10] = test system: NCI-H23 lung

Compound | TGI [1] | TGI [2] [µM] | TGI [3] [µM] | TGI [4] | TGI [5] | TGI [6] | TGI [7] | TGI [8] | TGI [9] | TGI [10]
CO/N=C(\C)c1cccc(Nc2nc3ccccc3c3occc23)c1 | 27.9 µM | 26.8 | 25.4 | 26.8 µM | 22.8 µM | 37.3 µM | 33.1 µM | 40.8 µM | 27.2 µM | –
Nc1nc(OCC2CCCCC2)c2[nH]cnc2n1 | 38.4 µM | > 72.9 | 58 | 61.9 µM | > 100 µM | > 68.8 µM | 35.7 µM | 55.5 µM | 57.1 µM | > 100 µM
O=C(NC(Cc1ccc(I)cc1)C(=O)O)c1ccc(Cl)cc1 (configuration not stated) | – | – | > 100 | > 100 µM | – | > 100 µM | > 100 µM | > 100 µM | – | > 100 µM
CCSc1nc(-c2cccs2)nc2ccc(I)cc12 | > 100 µM | > 100 | > 100 | > 100 µM | – | > 100 µM | > 100 µM | > 100 µM | > 100 µM | > 100 µM
CC1CC(Br)C(=O)O1 (configuration not stated) | > 100 µM | > 100 | > 100 | > 100 µM | > 100 µM | > 100 µM | > 100 µM | > 100 µM | > 100 µM | > 100 µM
NCCNCCNc1ccc(NCCNCCN)c2c1C(=O)c1c(O)ccc(O)c1C2=O | > 100 µM | > 100 | > 100 | > 100 µM | > 100 µM | > 100 µM | > 100 µM | > 100 µM | > 100 µM | > 100 µM
c1ccc([P+](c2ccccc2)(c2ccccc2)c2ccc(-c3ccc([P+](c4ccccc4)(c4ccccc4)c4ccccc4)cc3)cc2)cc1 | 73.3 µM | > 100 | > 100 | > 100 µM | 63.5 µM | > 100 µM | 52.4 µM | > 100 µM | > 100 µM | 55.3 µM
Cc1c2cc[n+](C)cc2c(C)c2c1oc1ccccc12 | > 100 µM | 4.39 | 98.3 | > 42.3 µM | 35.2 µM | 28.7 µM | 16.7 µM | 30.1 µM | 70.3 µM | 11.2 µM
O=C1OC2(OC2c2ccc(Cl)cc2)c2ccccc21 (configuration not stated) | > 100 µM | – | > 100 | > 100 µM | – | > 100 µM | > 100 µM | > 100 µM | > 100 µM | –
CN(C)CCCN1c2ccc([N+](=O)[O-])cc2CCc2cc([N+](=O)[O-])ccc21 | 23.5 µM and 29 µM | 29.2 | 29.1 | 28.5 µM and 29.4 µM | 30.3 µM and 22.6 µM | 42.9 µM and 25.3 µM | 30.2 µM and 30.5 µM | 55.3 µM and 34.1 µM | 19.9 µM and 25.6 µM | 33.7 µM and 34.9 µM
COc1ccc2c(c1)/C(=C\c1c(Cl)n(-c3ccccc3)c3ccccc13)C(=O)N2 | 45.1 µM | 51.3 | 56.7 | 57.5 µM | > 100 µM | > 100 µM | 6.78 µM | 45.4 µM | 11.2 µM | 38.4 µM
CCOC(=O)Nc1cc2c(c(N)n1)N=C(c1ccc3ccccc3c1)CN2 | > 83.3 µM | > 57.8 | 36.9 | > 100 µM | – | – | 10.7 µM | – | 27.4 µM | –
C[N+](C)(C)CCN[N+]1(C)CCCc2ccccc21 (configuration not stated) | > 100 µM | > 100 | > 100 | > 100 µM | > 100 µM | 90.6 µM | > 100 µM | 92.9 µM | > 100 µM | > 100 µM
COc1cc([N+](=O)[O-])ccc1NC(=O)c1cccc([N+](=O)[O-])c1O | 62 µM | – | 48.8 | 78.8 µM | – | > 100 µM | > 100 µM | 61.9 µM | – | 96.9 µM
CC1(C=O)CCC23COC4(CCC5C6(C)CCC(OC7OCC(OC8OC(CO)C(O)C(OC9OC(CO)C(O)C(O)C9O)C8OC8OCC(O)C(O)C8O)C(O)C7OC7OC(CO)C(O)C(O)C7O)C(C)(C)C6CCC5(C)C4(C)CC2O)C3C1 (configuration not stated) | 2.57 µM | 3.06 | 2.32 | 2.89 µM | 0.95 µM | – | 2.79 µM | 4.45 µM | – | –
CS(=O)(=O)OCCN(CCOS(C)(=O)=O)c1ccc(/C=N/Nc2ncnc3nc[nH]c23)cc1 | 97.2 µM | – | 32.5 | 78.4 µM | – | 40 µM | 39.8 µM | 39 µM | 37.9 µM | 39 µM
Cc1ccc([N+](=O)[O-])cc1S(=O)(=O)Nc1ccc(C2=NOC(c3ccccc3O)C2)cc1 (configuration not stated) | > 100 µM | 60.3 | > 100 | > 100 µM | > 100 µM | 9.04 µM | 24.1 µM | > 100 µM | 11.1 µM | 98.4 µM
O=c1c2cc(S(=O)(=O)O)ccc2nc(COc2ccc(Oc3ccc(Cl)cc3Cl)cc2)n1C(=S)Nc1ccc(Cl)cc1 | 64.7 µM | 45.2 | > 100 | 56.6 µM | – | – | 51.7 µM | 81.5 µM | 31 µM | 36.2 µM
O=C1CSC(c2ccccc2O)N1c1nc2cc3sc(N4C(=O)CSC4c4ccccc4O)nc3cc2s1 (configuration not stated) | > 100 µM | > 100 | > 100 | > 100 µM | > 100 µM | > 100 µM | > 100 µM | > 100 µM | > 100 µM | > 100 µM
N=C(N)SCc1cccc([N+](=O)[O-])c1 | – | – | 74.1 | > 100 µM | – | > 91.2 µM | 39.9 µM | 59.1 µM | 61.4 µM | > 83 µM
O=C1N(CN2CCOCC2)CN(CN2CCOCC2)C(=O)N1Cc1ccc(CN2C(=O)N(CN3CCOCC3)CN(CN3CCOCC3)C2=O)cc1 | > 100 µM | – | > 100 | > 100 µM | > 100 µM | > 100 µM | > 100 µM | 89.5 µM | – | > 100 µM
